Results on nine compounds are retold here after patent publication US7468446B2, “Substituted heterocyclic compounds and uses thereof” (Celgene Corporation, priority 2004, dated 2008).

Structures are written as SMILES.

Usually melting point stands for the temperature, or range, at which the solid turns liquid. `CCOc1cc(C(=CC#N)c2ccc3c(c2)OCCN3C)ccc1OC` (mixture of isomers) [compound 3, (E/Z) 3-(3-Ethoxy-4-methoxy-phenyl)-3-(4-methyl-3,4-dihydro-2H-benzo[1,4]oxazin-7-yl)-acrylonitrile] showed a melting point of 99 to 101 °C.

As for `CCOc1cc(C(=CC#N)c2ccc3cc[nH]c3c2)ccc1OC` (mixture of isomers) [compound 8, (E/Z)-3-(3-Ethoxy-4-methoxy-phenyl)-3-(1H-indol-6-yl)-acrylonitrile], the melting point lay within 132 to 134 °C.

As to `CCOc1cc(C(=CC#N)c2ccc3c(c2)nnn3C)ccc1OC` (mixture of isomers) [compound 4, (E/Z) 3-(3-Ethoxy-4-methoxy-phenyl)-3-(1-methyl-1H-benzotriazol-5-yl)-acrylonitrile], the melting point is 180 to 182 °C.

Compound `CCOc1cc(C(=CC#N)c2ccc3c(c2)CCO3)ccc1OC` (mixture of isomers) [compound 1, (E/Z) 3-(2,3-Dihydro-benzofuran-5-yl)-3-(3-ethoxy-4-methoxy-phenyl)-acrylonitrile] returned a melting point of 49 to 51 °C.

Turning to `CCOc1cc(C(=CC#N)c2ccc3occc3c2)ccc1OC` (mixture of isomers) [compound 10, (E/Z)-3-Benzofuran-5-yl-3-(3-ethoxy-4-methoxy-phenyl)-acrylonitrile], the melting point fell in the range of 95 to 97 °C.

`COc1cc(OC)cc(C(=CC#N)c2ccc3ncccc3c2)c1` (mixture of isomers) [compound 6, (E/Z) 3-(3,5-Dimethoxy-phenyl)-3-quinolin-6-yl-acrylonitrile] displayed a melting point of 142 to 144 °C.

The compound `COc1cc(OC)cc(C(=CC#N)c2ccc3c(c2)OCCN3C)c1` [compound 2, 3-(3,5-Dimethoxy-phenyl)-3-(4-methyl-3,4-dihydro-2H-benzo[1,4]oxazin-7-yl)-acrylonitrile] gave a melting point of 119 to 121 °C.

`CCOc1cc(C(=CC#N)c2ccc3ncccc3c2)ccc1OC` (mixture of isomers) [compound 5, (E/Z) 3-(3-Ethoxy-4-methoxy-phenyl)-3-quinolin-6-yl-acrylonitrile] displayed a melting point of 114 to 116 °C.

Turning to `COc1cc(OC)cc(C(=CC#N)c2ccc3ccn(C)c3c2)c1` (mixture of isomers) [compound 7, (E/Z)-3-(3,5-Dimethoxy-phenyl)-3-(1-methyl-1H-indol-6-yl)-acrylonitrile], the melting point lay in the range of 117 to 119 °C.
